Source: PMC11582101, “Unlocking the potential: unveiling tyrphostins with Michael-reactive cyanoacrylate motif as promising inhibitors of human 5-lipoxygenase” (Pflugers Archiv, 2024)
Entries after “also recorded” stand apart in the source; their conditions may differ. Read-outs that look alike come from different tables or passages of the source.

Legend:
5-LO = target: T1, 5-LO (Homo sapiens, UniProt P09917); test: 5-LO product formation in intact PMNL
T1 sequence (P09917 1-674): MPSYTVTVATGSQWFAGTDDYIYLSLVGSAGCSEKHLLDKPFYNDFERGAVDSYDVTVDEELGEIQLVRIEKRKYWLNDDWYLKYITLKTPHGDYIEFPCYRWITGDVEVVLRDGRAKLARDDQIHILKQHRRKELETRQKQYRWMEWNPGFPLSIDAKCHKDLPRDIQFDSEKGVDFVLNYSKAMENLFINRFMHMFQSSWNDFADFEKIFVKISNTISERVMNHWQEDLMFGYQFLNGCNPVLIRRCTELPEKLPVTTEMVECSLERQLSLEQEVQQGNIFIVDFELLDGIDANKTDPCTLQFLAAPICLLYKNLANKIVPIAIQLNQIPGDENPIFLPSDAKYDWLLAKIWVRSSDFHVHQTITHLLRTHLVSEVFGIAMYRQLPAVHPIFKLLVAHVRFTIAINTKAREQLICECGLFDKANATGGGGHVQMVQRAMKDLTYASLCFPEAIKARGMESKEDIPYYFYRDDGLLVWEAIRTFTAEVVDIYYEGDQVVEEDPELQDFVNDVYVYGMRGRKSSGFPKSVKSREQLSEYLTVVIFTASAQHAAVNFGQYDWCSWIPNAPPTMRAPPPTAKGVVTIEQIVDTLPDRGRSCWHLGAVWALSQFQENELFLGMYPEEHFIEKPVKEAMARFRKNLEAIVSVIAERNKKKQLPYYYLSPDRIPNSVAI

12-LO = target: T2, 12-LO (Homo sapiens, UniProt P18054); test: 12-HETE formation in platelets; conditions: 20 µM AA, 2.5 µM A23187, n = 3–6
T2 sequence (P18054 1-663): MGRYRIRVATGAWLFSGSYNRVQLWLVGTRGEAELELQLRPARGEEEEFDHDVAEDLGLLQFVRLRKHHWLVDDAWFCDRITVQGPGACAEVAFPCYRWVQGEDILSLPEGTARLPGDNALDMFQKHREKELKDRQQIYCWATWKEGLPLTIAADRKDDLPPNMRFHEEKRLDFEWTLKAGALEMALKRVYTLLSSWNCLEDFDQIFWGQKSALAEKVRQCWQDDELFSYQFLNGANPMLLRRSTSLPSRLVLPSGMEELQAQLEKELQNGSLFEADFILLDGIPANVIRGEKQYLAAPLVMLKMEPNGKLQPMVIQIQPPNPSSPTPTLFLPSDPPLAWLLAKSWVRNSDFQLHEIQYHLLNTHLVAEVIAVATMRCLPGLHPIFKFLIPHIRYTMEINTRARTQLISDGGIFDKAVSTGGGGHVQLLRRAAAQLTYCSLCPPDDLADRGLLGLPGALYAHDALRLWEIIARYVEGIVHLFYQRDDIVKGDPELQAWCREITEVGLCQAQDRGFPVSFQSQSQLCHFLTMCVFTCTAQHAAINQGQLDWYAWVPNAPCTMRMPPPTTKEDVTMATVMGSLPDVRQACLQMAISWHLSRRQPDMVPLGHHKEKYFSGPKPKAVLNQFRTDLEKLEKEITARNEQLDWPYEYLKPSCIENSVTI

15-LO = test: 15-HETE formation in intact PMNL; conditions: for IC50: read-out: IC50 for inhibition of 15-HETE formation, PMNL
U2OS cells [1] = conditions: human, 10 µM
r5-LO_4C = target: T3, r5-LO_4C (Homo sapiens, UniProt P09917, C160S/C301S/C417S/C419S); test: Covalent inhibitor binding by mass spectrometry, r5-LO_4C; conditions: 20 µM protein, 100 µM compound, at least 1 h RT
T3 construct: made in house; host or cells: E. coli BL21 (DE3)
T3 sequence (P09917 2-674 C160S/C301S/C417S/C419S limits assumed): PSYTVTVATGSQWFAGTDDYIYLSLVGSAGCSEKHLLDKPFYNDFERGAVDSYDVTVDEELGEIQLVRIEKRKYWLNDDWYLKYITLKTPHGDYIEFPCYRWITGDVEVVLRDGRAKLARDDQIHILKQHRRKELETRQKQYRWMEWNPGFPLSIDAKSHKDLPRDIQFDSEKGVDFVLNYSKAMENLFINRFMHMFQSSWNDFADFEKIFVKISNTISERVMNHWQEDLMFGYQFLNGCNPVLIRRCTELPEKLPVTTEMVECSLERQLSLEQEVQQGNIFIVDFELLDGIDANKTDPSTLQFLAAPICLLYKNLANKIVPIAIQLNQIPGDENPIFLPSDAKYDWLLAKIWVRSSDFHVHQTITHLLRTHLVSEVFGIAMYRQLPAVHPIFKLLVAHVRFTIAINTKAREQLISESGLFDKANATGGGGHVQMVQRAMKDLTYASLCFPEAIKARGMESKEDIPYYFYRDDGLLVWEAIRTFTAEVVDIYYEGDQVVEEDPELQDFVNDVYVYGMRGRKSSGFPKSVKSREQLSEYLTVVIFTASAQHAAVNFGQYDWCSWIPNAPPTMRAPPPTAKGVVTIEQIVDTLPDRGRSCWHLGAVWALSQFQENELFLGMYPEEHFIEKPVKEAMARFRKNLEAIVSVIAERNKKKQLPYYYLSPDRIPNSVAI
Protocol: r5-LO_WT or r5-LO_4C protein was diluted to 20 µM in gel filtration buffer; 100 µM of compound was added and incubated for a minimum time of 1 h at RT before 10 µL was injected onto a 1260 Infinity HPLC (Agilent, Santa Clara, USA) using a C3 column with a flow rate of 0.4 mL/min as published before. The HPLC was coupled with a 6230 electrospray ionization TOF LC/MS detector (Agilent, Santa Clara, CA, USA). Data were acquired using the Agilent MassHunter Acquisition software and processed with the Agilent Mass Hunter BioConfirm software (B.08.00). Peak intensities were calculated and normalized to the highest count of each data set with GraphPad Prism version 7.05 (GraphPad Software, Boston, MA, USA).
Fig. 3 Mass spectra of r5-LO_WT or r5-LO_4C incubated with inhibitors (blue or red line). 20 µM r5-LO_WT (left) or r5-LO_4C (right) was incubated with 100 µM degrasyn (A), AG556 (B), tyrphostin A9 (C), AG879 (D), or CAPE (E) at RT for at least 1 h before analysis. Measurement was performed using an Agilent 1260 Infinity HPLC with an Agilent 6230 TOF LC/MS detector. Obtained data were processed using Mass Hunter BioConfirm (B.08.00), and resulted counts were normalized to the highest peak of the spectrum

r5-LO_WT = target: T4, r5-LO_WT (Homo sapiens, UniProt P09917); test: Covalent inhibitor binding by mass spectrometry, r5-LO_WT; conditions: 100 µM compound; for inhibitor adducts to r5-LO_WT detected by mass spectrometry: 20 µM protein, at least 1 h RT
T4 construct: made in house; host or cells: E. coli BL21 (DE3)
T4 sequence (P09917 1-674): T1 sequence (P09917 1-674)

U2OS cells [2] = test: Multiplex live-cell high-content assay; conditions: up to 48 h, normalized to DMSO
[3] = intact PMNL, 20 µM AA, 2.5 µM A23187, (95% CI), n = 3–6
[4] = IC50 for inhibition of 5-LO product formation, PMNL, intact PMNL, 20 µM AA, 2.5 µM A23187, (95% CI), n = 3–6

Molecule	IC50 (5-LO)	IC50 for inhibition of 12-HETE formation, platelets (12-LO)	IC50 for inhibition of 15-HETE formation, PMNL (15-LO; [3])	other results
N#C/C(=C\c1ccc(O)c(O)c1)C(N)=O [(E)-AG99]	7.2 µM	no inhibition	no inhibition	
N#CC(C#N)=Cc1ccc(O)c(O)c1 [AG18]	5.4 µM	no inhibition	no inhibition	
N#C/C(=C\c1ccc(O)c(O)c1)C(=O)O [AG30]			no inhibition	IC50 for inhibition of 5-LO product formation, PMNL (5-LO; [3]): no inhibition
N#CC(C#N)=Cc1cc(O)c(O)c(O)c1 [AG82]	8 µM	no inhibition	no inhibition	
N#CC(C#N)=Cc1ccc([N+](=O)[O-])c(O)c1 [AG126]			no inhibition	IC50 for inhibition of 5-LO product formation, PMNL (5-LO; [3]): no inhibition
N#C/C(=C\c1ccc(O)c(O)c1)C(=O)NCc1ccccc1 [AG490]		no inhibition		IC50 (5-LO; [4]): 1.1 µM; IC50 (15-LO; [3]): > 25 µM
N#C/C(=C\c1ccc(O)c(O)c1)C(=O)Nc1ccccc1 [AG494]	0.86 µM	no inhibition		IC50 (15-LO; [3]): 22 µM
N#C/C(=C\c1ccc(O)c(O)c1)C(=O)NCCCCc1ccccc1 [AG556]	0.34 µM	no inhibition		normalized healthy cell count (U2OS cells [1]): around 75%; inhibitor adducts to r5-LO_4C detected by mass spectrometry (r5-LO_4C): only one adduct; inhibitor adducts to r5-LO_WT detected by mass spectrometry (r5-LO_WT): covalently bound to up to four cysteines; also recorded: four peaks; mass shift of inhibitor adduct (r5-LO_WT; 20 µM r5-LO_WT): 336 Da; IC50 (15-LO; [3]): 5.1 µM
CC(C)(C)c1cc(C=C(C#N)C#N)cc(Br)c1O [AG1024]	3.1 µM		no inhibition	
O=C(/C=C/c1ccc(O)c(O)c1)OCCc1ccccc1 [CAPE, caffeic acid phenethyl ester]	0.23 µM	no inhibition		normalized healthy cell count (U2OS cells [1]): around 75%; inhibitor adducts to r5-LO_WT detected by mass spectrometry (r5-LO_WT): did not detect mass shifts; IC50 (15-LO; [3]): 10 µM
COc1ccc(/C=C(/C#N)c2cccnc2)cc1OC [RG13022]	> 30 µM		no inhibition	
N#C/C(=C/c1cc(Cl)cc(Cl)c1)c1cccnc1 [RG14620]	5.9 µM		no inhibition	
CC(C)c1cc(/C=C(\C#N)C(=O)NCCCc2ccccc2)cc(C(C)C)c1O [SU1498]	0.76 µM		did not show inhibition; also recorded: no inhibition	
CN[C@@H]1C[C@H]2O[C@@](C)([C@@H]1OC)n1c3ccccc3c3c4c(c5c6ccccc6n2c5c31)C(=O)NC4 [Staurosporine]				normalized healthy cell count (U2OS cells [2]; 10 µM inhibitor): about 25%
N#CC(C#N)=Cc1ccc(O)cc1 [Tyrphostin 8]			no inhibition	IC50 for inhibition of 5-LO product formation, PMNL (5-LO; [3]): no inhibition; IC50 for inhibition of 5-LO product formation, PMNL (5-LO; intact PMNL, 20 µM AA, 2.5 µM A23187, (95% CI), n = 3–6, listed as tyrphostin 8): failed to inhibit
CC(C)(C)c1cc(C=C(C#N)C#N)cc(C(C)(C)C)c1O [Tyrphostin A9]	1.1 µM	no inhibition	no inhibition	normalized healthy cell count (U2OS cells [2]; 1 µM inhibitor): 57%; normalized healthy cell count (U2OS cells [2]; 1 µM inhibitor, listed as tyrphostin A9): about 50%; normalized healthy cell count (U2OS cells [2]; 10 µM inhibitor): below 50%; inhibitor adducts to r5-LO_WT detected by mass spectrometry (r5-LO_WT): did not detect mass shifts
C[C@H](NC(=O)/C(C#N)=C/c1cccc(Br)n1)c1ccccc1 [WP1066]			moderate inhibition	IC50 (5-LO; [4]): 0.93 µM; IC50 (15-LO; [3]): 18 µM
AG825				IC50 for inhibition of 15-HETE formation, PMNL (15-LO): no inhibition
